# Results taken from PubChem BioAssay (NCI).
#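 GI50 is the concentration that inhibits growth by half. TGI: concentration producing complete growth inhibition.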
# How the values were obtained:
# Test in all cases: growth of human tumour cells (NCI), 384-well format
# HCT-15 colon = system: HCT-15 colon
# IGROV1 ovarian = system: IGROV1 ovarian
# OVCAR-3 ovarian = system: OVCAR-3 ovarian
# 786-0 renal = system: 786-0 renal
# KM12 colon = system: KM12 colon
# SF-268 CNS = system: SF-268 CNS
# SK-MEL-2 melanoma = system: SK-MEL-2 melanoma
# T-47D breast = system: T-47D breast
# ACHN renal = system: ACHN renal
# MALME-3M melanoma = system: MALME-3M melanoma
# NCI-H226 lung = system: NCI-H226 lung
# A498 renal = system: A498 renal
# M14 melanoma = system: M14 melanoma
# NCI/ADR-RES ovarian = system: NCI/ADR-RES ovarian
# OVCAR-8 ovarian = system: OVCAR-8 ovarian
# NCI-H23 lung = system: NCI-H23 lung
# HS 578T breast = system: HS 578T breast
# EKVX NSCLC = system: EKVX NSCLC
# K-562 leukemia = system: K-562 leukemia
# BT-549 breast = system: BT-549 breast
# SK-OV-3 ovarian = system: SK-OV-3 ovarian
# SW-620 colon = system: SW-620 colon
# SK-MEL-28 melanoma = system: SK-MEL-28 melanoma
# TK-10 renal = system: TK-10 renal
# HCC-2998 colon = system: HCC-2998 colon
# SF-539 CNS = system: SF-539 CNS
# SK-MEL-5 melanoma = system: SK-MEL-5 melanoma
# HL-60(TB) leukemia = system: HL-60(TB) leukemia
# OVCAR-5 ovarian = system: OVCAR-5 ovarian
# OVCAR-4 ovarian = system: OVCAR-4 ovarian
# HT29 colon = system: HT29 colon
# SR leukemia = system: SR leukemia
# CCRF-CEM leukemia = system: CCRF-CEM leukemia
# MCF7 breast = system: MCF7 breast
# SF-295 CNS = system: SF-295 CNS
# RXF 393 renal = system: RXF 393 renal
# SN12C renal = system: SN12C renal
# LOX IMVI melanoma = system: LOX IMVI melanoma
# SNB-75 CNS = system: SNB-75 CNS
# COLO 205 colon = system: COLO 205 colon
# A549 NSCLC = system: A549 NSCLC
# CAKI-1 renal = system: CAKI-1 renal
# NCI-H522 lung = system: NCI-H522 lung
# DU-145 prostate = system: DU-145 prostate
# PC-3 prostate = system: PC-3 prostate
# UACC-257 melanoma = system: UACC-257 melanoma
# HOP-62 NSCLC = system: HOP-62 NSCLC
smiles,measurement,setting,value
O=C1Nc2ccc(I)cc2/C1=C/c1cc(Br)c(O)c(Br)c1,GI50,HCT-15 colon,15.7 µM
same,TGI,HCT-15 colon,30.6 µM
same,GI50,IGROV1 ovarian,18.6 µM
same,TGI,IGROV1 ovarian,41 µM
same,GI50,OVCAR-3 ovarian,6.34 µM
same,TGI,OVCAR-3 ovarian,19.2 µM
same,GI50,786-0 renal,13.9 µM
same,TGI,786-0 renal,27.4 µM
same,GI50,KM12 colon,12.5 µM
same,TGI,KM12 colon,27.6 µM
same,GI50,SF-268 CNS,16.3 µM
same,TGI,SF-268 CNS,52 µM
same,GI50,SK-MEL-2 melanoma,15.4 µM
same,TGI,SK-MEL-2 melanoma,30.7 µM
same,GI50,T-47D breast,12.8 µM
same,TGI,T-47D breast,30 µM
same,GI50,ACHN renal,15.7 µM
same,TGI,ACHN renal,35.7 µM
same,GI50,MALME-3M melanoma,4.43 µM
same,TGI,MALME-3M melanoma,20.8 µM
same,GI50,NCI-H226 lung,27.2 µM
same,TGI,NCI-H226 lung,68.5 µM
same,GI50,A498 renal,16 µM
same,TGI,A498 renal,30.7 µM
same,GI50,M14 melanoma,4.38 µM
same,TGI,M14 melanoma,18.6 µM
same,GI50,NCI/ADR-RES ovarian,18 µM
same,TGI,NCI/ADR-RES ovarian,43.5 µM
same,GI50,OVCAR-8 ovarian,17.2 µM
same,TGI,OVCAR-8 ovarian,37.4 µM
same,GI50,NCI-H23 lung,14.1 µM
same,TGI,NCI-H23 lung,27.6 µM
same,GI50,HS 578T breast,14.4 µM
same,TGI,HS 578T breast,28.5 µM
same,GI50,EKVX NSCLC,14.3 µM
same,TGI,EKVX NSCLC,30.2 µM
same,GI50,K-562 leukemia,17 µM
same,TGI,K-562 leukemia,31.1 µM
same,GI50,BT-549 breast,11.7 µM
same,TGI,BT-549 breast,26.8 µM
same,GI50,SK-OV-3 ovarian,16.2 µM
same,TGI,SK-OV-3 ovarian,34.8 µM
same,GI50,SW-620 colon,16.9 µM
same,TGI,SW-620 colon,31.4 µM
same,GI50,SK-MEL-28 melanoma,6.3 µM
same,TGI,SK-MEL-28 melanoma,34.8 µM
same,GI50,TK-10 renal,21.6 µM
same,TGI,TK-10 renal,78.1 µM
same,GI50,HCC-2998 colon,22.8 µM
same,TGI,HCC-2998 colon,38 µM
same,GI50,SF-539 CNS,15.4 µM
same,TGI,SF-539 CNS,30.1 µM
same,GI50,SK-MEL-5 melanoma,12.3 µM
same,TGI,SK-MEL-5 melanoma,24.8 µM
same,GI50,HL-60(TB) leukemia,11.3 µM
same,TGI,HL-60(TB) leukemia,23.4 µM
same,GI50,OVCAR-5 ovarian,25.1 µM
same,TGI,OVCAR-5 ovarian,65 µM
same,GI50,OVCAR-4 ovarian,19.1 µM
same,TGI,OVCAR-4 ovarian,47.1 µM
same,GI50,HT29 colon,14.1 µM
same,TGI,HT29 colon,31.1 µM
same,GI50,SR leukemia,6.31 µM
same,TGI,SR leukemia,18.8 µM
same,GI50,CCRF-CEM leukemia,11.3 µM
same,TGI,CCRF-CEM leukemia,23.4 µM
same,GI50,MCF7 breast,10.1 µM
same,TGI,MCF7 breast,25.3 µM
same,GI50,SF-295 CNS,11.9 µM
same,TGI,SF-295 CNS,34.2 µM
same,GI50,RXF 393 renal,12.6 µM
same,TGI,RXF 393 renal,25.5 µM
same,GI50,SN12C renal,21.6 µM
same,TGI,SN12C renal,48.5 µM
same,GI50,LOX IMVI melanoma,13 µM
same,TGI,LOX IMVI melanoma,29.4 µM
same,GI50,SNB-75 CNS,25.7 µM
same,TGI,SNB-75 CNS,51.8 µM
same,GI50,COLO 205 colon,10.2 µM
same,TGI,COLO 205 colon,23.5 µM
same,GI50,A549 NSCLC,17.2 µM
same,TGI,A549 NSCLC,46 µM
same,GI50,CAKI-1 renal,21.3 µM
same,TGI,CAKI-1 renal,43.9 µM
same,GI50,NCI-H522 lung,13.2 µM
same,TGI,NCI-H522 lung,26.1 µM
same,GI50,DU-145 prostate,22.9 µM
same,TGI,DU-145 prostate,88.9 µM
same,GI50,PC-3 prostate,13.6 µM
same,TGI,PC-3 prostate,27.1 µM
same,GI50,UACC-257 melanoma,14.9 µM
same,TGI,UACC-257 melanoma,33.3 µM
same,GI50,HOP-62 NSCLC,20.4 µM
same,TGI,HOP-62 NSCLC,39.9 µM
